Measurements taken from patent US9232799B2, “N-[(het)arylethyl)] pyrazole(thio)carboxamides and their heterosubstituted analogues” (BAYER INTELLECTUAL PROPERTY GMBH, priority 2010, dated 2016).
Where “and” joins values, the source holds several entries; their conditions need not be identical. Equal values may be shown once.

Experiments:
[1] = logP by HPLC on reversed-phase column (C 18), EEC Directive 79/831 Annex V.A8; assay type: physicochemical
Description: In table 1, the logP values were determined in accordance with EEC Directive 79/831 Annex V.A8 by HPLC (High Performance Liquid Chromatography) on a reversed-phase column (C 18), using the method described below: Temperature: 40° C.; […]

[2] = tested on: Sphaerotheca fuliginea; assay: In vivo preventive test on Sphaerotheca fuliginea (cucumber); conditions: 500 ppm of active ingredient, evaluated 7 days after inoculation
Excerpt: One day after this treatment, the plants are inoculated with an aqueous spore suspension of Sphaerotheca fuliginea.

[3] = tested on: Alternaria solani; assay: In vivo preventive test on Alternaria solani (tomato); conditions: 500 ppm of active ingredient, evaluated 7 days after inoculation
Excerpt: One day after this treatment, the plants are inoculated with an aqueous spore suspension of Alternaria solani.

[4] = tested on: Pyrenophora teres; assay: In vivo preventive test on Pyrenophora teres (barley); conditions: 500 ppm of active ingredient, evaluated 7-9 days after inoculation
Excerpt: One day after this treatment, the plants are inoculated with an aqueous spore suspension of Pyrenophora teres.

[5] = tested on: Venturia inaequalis; assay: In vivo preventive test on Venturia inaequalis (apple scab); conditions: 100 ppm of active ingredient, evaluated 10 days after inoculation
[6] = tested on: Septoria tritici; assay: In vivo preventive test on Septoria tritici (wheat); conditions: 500 ppm of active ingredient, evaluated 21 days after inoculation
Excerpt: (§1) To test for preventive activity, young plants are sprayed with the preparation of active compound or active compound combination at the stated rate of application.

[7] = tested on: Blumeria graminis f.sp. hordei; assay: In vivo preventive test on Blumeria graminis (barley); conditions: 500 ppm of active ingredient, evaluated 7 days after inoculation
Excerpt: as §1

[8] = tested on: Fusarium nivale (var. majus); assay: In vivo preventive test on Fusarium nivale (wheat); conditions: 500 ppm of active ingredient, evaluated 5 days after inoculation
Excerpt: as §1

[9] = tested on: Leptosphaeria nodorum; assay: In vivo preventive test on Leptosphaeria nodorum (wheat); conditions: 500 ppm of active ingredient, evaluated 7-9 days after inoculation
Excerpt: One day after this treatment, the plants are inoculated with an aqueous spore suspension of Leptosphaeria nodorum.

[10] = tested on: Uromyces appendiculatus; assay: In vivo preventive test on Uromyces appendiculatus (beans); conditions: 100 ppm of active ingredient, evaluated 10 days after inoculation
[11] = tested on: Botrytis cinerea; assay: In vivo preventive test on Botrytis cinerea (beans)
Excerpt: To test for preventive activity, young plants are sprayed with the preparation of active compound. After the spray coating has dried on, 2 small pieces of agar covered with growth of Botrytis cinerea are placed on each leaf.

[12] = tested on: Puccinia triticina; assay: In vivo preventive test on Puccinia triticina (wheat); conditions: evaluated 8 days after inoculation; for Efficacy: dose 500 ppm of active ingredient
[13] = tested on: Phakopsora pachyrhizi; assay: In vivo protective test on Phakopsora pachyrhizi (soybeans); conditions: dose 250 ppm of active ingredient, evaluated 11 days after inoculation
[14] = tested on: aflatoxines production; assay: microbe, parasite or virus in culture; assay type: cell-based, Aspergillus parasiticus; conditions: 50 μM
[15] = tested on: Fusarium graminearum; assay: microbe, parasite or virus in culture; assay type: cell-based; conditions: 50 μM
[16] = preventive, beans, 100 ppm of active ingredient, lesion size 2 days after inoculation

Row | Structure (SMILES) | logP [1] | Efficacy [2] [%] | Efficacy [3] [%] | Efficacy [4] [%] | Efficacy [5] [%] | Efficacy [6] [%] | Efficacy [7] [%] | Efficacy [8] [%] | Efficacy [9] [%] | Efficacy [10] [%] | Efficacy [11, 16] [%] | Efficacy [12] | Efficacy (protection) ([12]; preventive, 500 ppm of active ingredient) | Efficacy [13] [%] | % Inhibition of Aflatoxin at 50 μM [14] [%] | % Inhibition of fungal growth at 50 μM [15] [%] | Efficacy ([11]; dose 500 ppm of active ingredient, table K10) [%] | Efficacy ([11]; preventive, beans, 500 ppm of active ingredient, lesion size 2 days after inoculation)
1 | Cn1nc(C(F)F)c(C(=O)N(C2CC2)C2CCCC2c2ccc(Cl)cc2Cl)c1F (centres unmarked) [Example 211] | 4.67 | 100 | 100 | 100 | 100 | 100 | 100 | 100 | 95 | 100 | 100 | 100% and 98% | greater than 95% | 80 | 100 | 100 | – | –
2 | Cn1nc(C(F)F)c(C(=O)N(C[Si](C)(C)c2ccccc2Cl)C2CC2)c1F [Example 231] | 4.13 | 100 | 94 | 100 | 99 | 100 | 100 | 83 | 100 | 100 | 99 | 100% | – | 80 | 100 | 100 | – | –
3 | Cn1nc(C(F)F)c(C(=O)N(C[Si](C)(C)c2cccc(Cl)c2)C2CC2)c1F [Example 235] | 4.18 | 95 | 100 | 100 | 100 | 100 | 94 | 100 | 100 | 100 | 99 | 100% | – | 100 | 100 | 100 | – | –
4 | Cn1nc(C(F)F)c(C(=O)N(C[Si](C)(C)c2ccc(Cl)cc2Cl)C2CC2)c1F [Example 238] | 4.78 | 98 | 94 | 100 | 100 | 100 | 100 | 83 | 100 | 100 | 100 | 100% | – | 85 | 100 | 100 | – | –
5 | Cn1nc(C(F)F)c(C(=O)N(C[Si](C)(C)c2cc(Cl)cc(Cl)c2)C2CC2)c1F [Example 242] | 4.78 | – | 100 | 100 | 100 | 100 | 100 | 83 | 100 | 100 | 100 | 100% | – | 99 | 100 | 100 | 100 | total protection
